Assay results published in the supplement of paper PMC10307832.

Experiments:
Assay in all cases: relative viability (nuclei count vs DMSO), 5 days (fraction); higher = more cells survive
[1] = compound: CC1=CC(=NN1)NC2=CC(=NC(=N2)/C=C/C3=CC=CC=C3)N4CCN(CC4)C
Procedure, shortened: (§1)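 Viability was defined as treated-well nuclei divided by vehicle-well nuclei, with the median taken over replicate plates. Cells from lung cancer lines sat overnight at 37 °C in 1536-well plates, received five √10-spaced library-drug doses by pinning on vehicle-anchored plates, and grew 5 days without medium change before one-step fixation, permeabilisation and Hoechst staining, 4× imaging and MetaXpress nuclear counts. Only plates with control CV under 25% and at least one doubling were kept.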

Bortezomib = compound: CC(C)C[C@H](NC(=O)[C@H](Cc1ccccc1)NC(=O)c1cnccn1)B(O)O [Bortezomib]
Procedure, shortened: as §1

Obatoclax = compound: COC1=CC(c2cc3ccccc3[nH]2)=N/C1=C\c1[nH]c(C)cc1C [Obatoclax]
Procedure, shortened: as §1

NCI-H650
relative viability ([1]; 0.08 µM): 0.701
relative viability ([1]; 0.253 µM): 1.15
relative viability ([1]; 0.8 µM): 1.1
relative viability ([1]; 2.53 µM): 0.492
relative viability ([1]; 8 µM): 0.208
relative viability (Bortezomib; 0.000632 µM): 0.97
relative viability (Bortezomib; 0.002 µM): 1.03
relative viability (Bortezomib; 0.002 µM, anchor plate): 0.902
relative viability (Bortezomib; 0.006325 µM): 0.689
relative viability (Bortezomib; 0.02 µM): 0.281
relative viability (Obatoclax; 0.01 µM): 1.02
relative viability (Obatoclax; 0.03162 µM): 0.765
relative viability (Obatoclax; 0.3162 µM): 0.742
relative viability (Obatoclax; 1 µM): 0.445
